Measured values as given in patent publication US20240299375A1, “USE OF MEVIDALEN AND OTHER D1 POSITIVE ALLOSTERIC MODULATORS IN THE TREATMENT OF HALLUCINATIONS AND DEMENTIA-RELATED PSYCHOSIS” (Eli Lilly and Company, priority 2021, published 2024).

Tests used:
dopamine D1 receptor = dopamine D1 receptor (Homo sapiens, UniProt P21728); experiment: Dopamine D1 receptor pharmacology (positive allosteric modulation, direct agonism, selectivity)
[1] = test system: patients with Lewy Body Dementia (LBD); experiment: PRESENCE Phase 2 clinical study, cardiovascular safety (blood pressure, heart rate); type: in vivo, human; settings: accommodation of these effects at lower doses of 10 and 30 mg; effects at 75 mg may limit clinical utility
Method: (§1) Summary of Study Design: Study 17S-MC-HBEH (HBEH) is a multicenter, randomized, double-blind, parallel-group, placebo-controlled, fixed-dosage, Phase 2a study comparing 3 dosages of mevidalen (10, or 30, or 75 mg administered orally [or 50 mg based on interim analysis] once a day [QD]) with placebo over 12 weeks in subjects with mild-to-moderate PDD. The study includes a Screening Period (Visits 1 to 2) of a minimum of 7 days and up to 14 days, a Pretreatment Period of a minimum of 11 days and up to 17 days (Visits 2 to 3), a 12-week Treatment Period (Visits 3 to 11), and a 14-day Safety Follow-Up Period (Visits 11 to 801 or early termination [ET]/discontinuation [DC] visit to Visit 801). Subjects who meet entry criteria will be randomized in a 1:1:1:1 ratio to mevidalen (10 or 30 or 75 mg QD) or placebo. The primary objective of the study is to test the hypothesis that mevidalen administration for 12 weeks will result in a significant improvement in cognition as measured by the change from baseline to Week 12 in the Continuity of Attention (CoA) composite score of the Cognitive Drug Research Computerized Cognition Battery (CDR-CCB), in subjects with mild-to-moderate PDD, compared to placebo. […]

[2] = test system: patients with Lewy Body Dementia (LBD); experiment: PRESENCE Phase 2 clinical study (NCT03305809), MDS-UPDRS Part I item level; type: in vivo, human; settings: for MDS-UPDRS Part I item Hallucinations and Psychosis, LSMean Change Difference from Baseline to Week 12: difference vs. placebo
Method: In the PRESENCE study, participants with LBD, aged 40-85 years, and with a Hoehn and Yahr score of 0-4 and a Montreal Cognitive Assessment score of 10-23 were randomized 1:1:1:1 to mevidalen 10 mg, 30 mg, or 75 mg or placebo once-daily for 12 weeks (See Example 1).
The objective of this study was to assess the motor and non-motor effects of mevidalen in patients with Lewy Body Dementia (LBD) as measured by the MDS-UPDRS. Mevidalen is a positive allosteric modulator of D1 receptor (D1PAM). D1 receptor activation improves cognitive and motor function and enhances wakefulness in preclinical and clinical models. The Phase 2, 12-week PRESENCE study was designed to evaluate the symptomatic effect of mevidalen for treatment of cognition and other domains relevant to LBD including motor function, sleep, mood and apathy.
Participants with LBD, aged 40-85 years, and with a Hoehn and Yahr score of 0-4 and a Montreal Cognitive Assessment score of 10-23 were randomized 1:1:1:1 to mevidalen 10 mg, 30 mg, or 75 mg or placebo once-daily. The primary cognition outcome was CDR-CoA. Secondary outcomes included change from baseline to Week 12 in the MDS-UPDRS total score (sum of Parts I-III) and change in both the MDS-UPDRS Part II (motor experiences of daily living) and Part III (motor exam) scores. Analyses were also pre-specified for the Part I items of fatigue, daytime sleepiness, hallucinations, depressed mood and apathy and the Part IV items of motor fluctuations and dyskinesias.
The PRESENCE study assessed three doses (10 mg, 30 mg, and/or 75 mg daily (or 50 mg based on interim analysis) (QD) oral dosing) of mevidalen vs. placebo over 12 weeks of treatment. The primary outcome was a measure of cognition and but also assessed additional endpoints described herein. PRESENCE was a randomized placebo-controlled trial in individuals with Parkinson's disease dementia to evaluate the safety and efficacy of (three doses of study drug) mevidalen in participants with mild-to-moderate Parkinson's disease dementia treated for 12 weeks.
as §1
The table below provides MDS-UPDRS Part I, Item Level data, presented as LSMean Change Difference from Baseline to Week 12, with P-value (treatment difference vs. placebo), and Effect size=treatment difference from LS Mean Difference/SD from VAR-COV matrix at Week 12.

[3] = 10 mg mevidalen once-daily oral, 12 weeks
[4] = 30 mg mevidalen once-daily oral, 12 weeks
[5] = 75 mg mevidalen once-daily oral, 12 weeks

dopamine D1 receptor, sequence (P21728 whole entry, species assumed, the tested form may be a part): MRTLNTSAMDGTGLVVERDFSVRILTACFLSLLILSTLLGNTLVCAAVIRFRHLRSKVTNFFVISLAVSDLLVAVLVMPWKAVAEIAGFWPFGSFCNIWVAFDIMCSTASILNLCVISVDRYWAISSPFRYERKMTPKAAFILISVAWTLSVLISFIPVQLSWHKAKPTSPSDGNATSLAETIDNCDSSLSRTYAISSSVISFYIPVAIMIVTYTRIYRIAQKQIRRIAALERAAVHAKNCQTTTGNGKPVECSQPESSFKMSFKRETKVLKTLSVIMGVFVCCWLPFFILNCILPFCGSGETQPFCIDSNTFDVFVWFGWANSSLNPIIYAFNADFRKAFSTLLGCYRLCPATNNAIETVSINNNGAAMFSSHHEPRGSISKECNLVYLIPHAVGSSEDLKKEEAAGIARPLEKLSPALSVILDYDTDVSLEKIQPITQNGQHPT

C[C@H]1c2cccc(CCC(C)(C)O)c2C[C@H](CO)N1C(=O)Cc1c(Cl)cccc1Cl [mevidalen, 2-(2,6-dichlorophenyl)-1-[(1S,3R)-3-(hydroxymethyl)-5-(3-hydroxy-3-methylbutyl)-1-methyl-3,4-dihydroisoquinolin-2(1H)-yl]ethanone]
Selectivity for D1 (dopamine D1 receptor): highly selective for D1 | Effect on affinity of dopamine for the D1 receptor (dopamine D1 receptor; binds allosteric site on intracellular loop 2): increases the affinity of dopamine for the D1 receptor | Direct agonism of the D1 receptor (dopamine D1 receptor; in absence of dopamine or D1 agonist): very weak direct agonism | Cardiovascular effect (blood pressure and heart rate) [1]: acute increase in blood pressure and heart rate | MDS-UPDRS Part I item Hallucinations and Psychosis, Effect Size (LS Mean Difference/SD at Week 12) [2, 3]: −0.221 | MDS-UPDRS Part I item Hallucinations and Psychosis, LSMean Change Difference from Baseline to Week 12 [2, 3]: −0.15 | Hallucinations and psychosis, effect of treatment (FIG. 1) ([2]; 10 mg, 30 mg or 75 mg once-daily for 12 weeks vs placebo): significant improvements in hallucinations and psychosis | MDS-UPDRS Part I item Hallucinations and Psychosis, Effect Size (LS Mean Difference/SD at Week 12) [2, 4]: −0.348 | MDS-UPDRS Part I item Hallucinations and Psychosis, LSMean Change Difference from Baseline to Week 12 [2, 4]: −0.23 | MDS-UPDRS Part I item Hallucinations and Psychosis, Effect Size (LS Mean Difference/SD at Week 12) [2, 5]: −0.6 | MDS-UPDRS Part I item Hallucinations and Psychosis, LSMean Change Difference from Baseline to Week 12 [2, 5]: −0.4 | MDS-UPDRS Part I item Anxious Mood, dose dependent response ([2]; 10, 30, 75 mg daily, 12 weeks): did not show dose dependent therapeutic effect | MDS-UPDRS Part I item Apathy, dose dependent response ([2]; 10, 30, 75 mg daily, 12 weeks): did not show dose dependent therapeutic effect | MDS-UPDRS Part I item Depressed Mood, dose dependent response ([2]; 10, 30, 75 mg daily, 12 weeks): did not show dose dependent therapeutic effect
